Columns and labels:
[1] = Chemical stability assessed as half life of hydrolysis in phosphate buffer at pH 8.5; assay type: physicochemical
[2] = Chemical stability assessed as half life of hydrolysis in carbonate buffer at pH 8.5; assay type: physicochemical
[3] = Chemical stability assessed as half life of hydrolysis at acidic pH; assay type: physicochemical
[4] = Chemical stability assessed as half life of hydrolysis at neutral pH; assay type: physicochemical
[5] = Stability in human serum assessed as half life of hydrolysis; assay type: ADME, cell-free
[6] = Stability in human gastric juice assessed as half life of hydrolysis; assay type: ADME, tissue-based
[7] = Aqueous stability assessed as time to reach 90% of starting dose at pH 7; details: buffer
Liver = experiment: Metabolic stability in rat liver S9 fraction assessed as esterase conversion rate; assay type: ADME, subcellular
[8] = Aqueous stability assessed as time to reach 90% of starting dose at pH 3.0 to 7.4; assay type: physicochemical; details: buffer
[9] = Aqueous stability assessed as time to reach 90% of starting dose at pH 7; assay type: physicochemical; details: buffer
[10] = Oral bioavailability in rat; assay type: ADME, organism-based; details: in vivo
Trypanosoma brucei = experiment: Antiparasitic activity against Trypanosoma brucei; assay type: functional, organism-based

For `O=C(O)CCNC(=O)[C@H](Cc1ccc(-c2ccccc2)cc1)NCP(=O)(Oc1ccccc1)Oc1ccccc1`, the half-life [1] was > 96 h and the half-life [2] was 0.5 h.
In the case of `CC(C)(C)C(=O)OCOP(=O)(OCOC(=O)C(C)(C)C)OC[C@H]1O[C@@H](n2cc(F)c(=O)[nH]c2=O)C[C@@H]1O`, the half-life [3] is reported as > 40 h and the half-life [4] is reported as > 40 h.
In the case of `CC(C)(C)C(=O)SCCOP(=O)(COCCn1cnc2c(N)ncnc21)OCCSC(=O)C(C)(C)C`, the half-life [5] is reported as 4 h and the half-life [6] is reported as < 5 min.
For `CCOC(=O)[C@H](C)NP(=O)(Oc1ccccc1)c1ccc(-c2nc(N)sc2CC(C)C)o1` (stereo partly specified), the Stability [7] was 14 h and the Stability (Liver) was 55 nmol/min/mg.
For `CC(=O)Oc1ccc(COP(=O)(OCc2ccc(OC(C)=O)cc2)c2ccc(-c3nc(N)sc3CC(C)C)o2)cc1`, the Stability [8] was < 4 h and the Stability (Liver) was > 300 nmol/min/mg.
In the case of `CCOC(=O)[C@H](C)NP(=O)(N[C@@H](C)C(=O)OCC)c1ccc(-c2nc(N)sc2CC(C)C)o1`, the Stability [8] is reported as > 48 h, the Stability [9] is reported as > 7 days and the Stability (Liver) is reported as 11 nmol/min/mg. For the same molecule, the bioavailability [10] was 22%.
Work on `CCOC(=O)CNP(=O)(NCC(=O)OCC)c1ccc(-c2nc(N)sc2CC(C)C)o1` yielded a Stability [7] of 36 h and a Stability (Liver) of 43 nmol/min/mg.
In the case of `CC(=O)SCCOP(=O)(OCCSC(C)=O)c1ccc(-c2nc(N)sc2CC(C)C)o1`, the Stability [7] is reported as 8 h and the Stability (Liver) is reported as > 300 nmol/min/mg.
Molecule `CC(C)(C)C(=O)SCCOP(=O)(OCCSC(=O)C(C)(C)C)Oc1ccc(O)c(C(=O)O)c1` has an IC50 (Trypanosoma brucei) of 20 µM.
In the case of `CC(C)Cc1sc(N)nc1-c1ccc(P(=O)(OCOC(=O)C(C)(C)C)OCOC(=O)C(C)(C)C)o1`, the Stability [7] is reported as < 4 h and the Stability (Liver) is reported as > 300 nmol/min/mg.
